For eleven compounds, TGI results are on record in PubChem BioAssay (NCI).

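Test compounds were applied to cells in 96-well plates for 48 hours at 5 doses. The concentration for full growth arrest is given as TGI.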 Some results are limits rather than exact numbers.

Among the test systems are SN12C renal; SF-539 CNS; MALME-3M melanoma; HCC-2998 colon; HS 578T breast; HCT-116 colon; SNB-75 CNS; UO-31 renal; BT-549 breast; MDA-N; HT29 colon; NCI/ADR-RES ovarian.
Test in all cases: NCI tumour cell line growth inhibition, 48 h

Consider `CCCCCCCCCCCCCCCCP(=O)(O)OP(=O)(O)OCC1OC(n2cnc3c(N)ncnc32)C(O)C1O` (stereo unspecified), for which the TGI was 59.5 µM in the test with SN12C renal; 43.5 µM in the test on SF-539 CNS; 44.8 µM in the test on MALME-3M melanoma; 44.8 µM in the test on HCC-2998 colon; 89.1 µM with HS 578T breast; 47.3 µM in the test on HCT-116 colon. Also, the TGI was 45.3 µM with SNB-75 CNS; 30 µM in the test with UO-31 renal; over 100 µM with BT-549 breast; over 100 µM in the test with MDA-N; 43.8 µM in the test on HT29 colon; 98.6 µM with NCI/ADR-RES ovarian.

Turning to `O=[N+]([O-])c1cccc2nccc(NCC(O)CO)c12` (stereo unspecified), the TGI in the test on SN12C renal worked out at 41 µM; in the test on SF-539 CNS, 36.9 µM; with MALME-3M melanoma, 28.4 µM; in the test with HCC-2998 colon it was 25.8 µM; with HS 578T breast, 40.7 µM; with HCT-116 colon it was 26.8 µM. Besides, the TGI was over 63.9 µM in the test on SNB-75 CNS; 37.2 µM in the test with UO-31 renal; 29.6 µM in the test on BT-549 breast; 31.8 µM in the test with MDA-N; 42 µM with HT29 colon; 73.3 µM in the test on NCI/ADR-RES ovarian.

With `C[Si](C)(C)OC1c2[nH]c3ccccc3c2CN2C(=O)CCC12` (stereo unspecified), the TGI in the test on SN12C renal, in the test with SF-539 CNS, in the test with HCC-2998 colon, in the test on HS 578T breast, with HCT-116 colon and in the test with SNB-75 CNS was over 100 µM in each case. Besides, the TGI in the test on UO-31 renal, in the test on BT-549 breast, with MDA-N, with HT29 colon and in the test on NCI/ADR-RES ovarian was over 100 µM each time.

On to `N#CS/C(Cl)=C(/C(Cl)=C(Cl)Cl)[N+](=O)[O-]`, for which the TGI in the test with SN12C renal was over 100 µM; in the test with SF-539 CNS, over 100 µM; in the test on MALME-3M melanoma it was 47.1 µM; in the test on HCC-2998 colon it was over 100 µM; in the test with HS 578T breast, 61 µM; in the test on HCT-116 colon it was 75.7 µM. The TGI was over 100 µM in the test on SNB-75 CNS; over 100 µM in the test with UO-31 renal; over 100 µM with BT-549 breast; over 100 µM with MDA-N; over 100 µM in the test with HT29 colon; 98.1 µM in the test on NCI/ADR-RES ovarian.

As for `Cc1c2c(n(CCc3ccccc3)c1C)NN=C(C#N)S2(=O)=O`, the TGI in the test on SN12C renal, with SF-539 CNS, in the test on MALME-3M melanoma, in the test on HCC-2998 colon, in the test with HS 578T breast and in the test with HCT-116 colon was over 100 µM throughout. The TGI in the test with SNB-75 CNS, with UO-31 renal, in the test on BT-549 breast, in the test with MDA-N, in the test with HT29 colon and with NCI/ADR-RES ovarian was over 100 µM each time.

Take `CC(C)CCC[C@@H](C)C1CCC2[C@@H]3CCC4CC(CCC=C(c5cc(Cl)c(OC(=O)c6ccccc6)c(C(=O)O)c5)c5cc(Cl)c(OC(=O)c6ccccc6)c(C(=O)O)c5)CC[C@]4(C)C3CC[C@@]21C` (stereo partly specified): the TGI with SN12C renal, in the test on SF-539 CNS, in the test with MALME-3M melanoma, in the test with HCC-2998 colon, in the test with HS 578T breast and in the test on HCT-116 colon was over 100 µM each time. Further, the TGI with SNB-75 CNS, in the test on UO-31 renal, in the test on BT-549 breast, in the test with MDA-N, in the test on HT29 colon and in the test on NCI/ADR-RES ovarian was over 100 µM throughout.

On to `CCCNC(=S)/N=C\c1c(O)c2ccccc2oc1=O`, for which the TGI with SN12C renal, with SF-539 CNS, in the test on MALME-3M melanoma, in the test on HCC-2998 colon, in the test on HS 578T breast and with HCT-116 colon was over 100 µM each time. For the same compound, the TGI in the test on SNB-75 CNS, in the test with UO-31 renal, in the test with BT-549 breast, in the test on MDA-N, in the test on HT29 colon and with NCI/ADR-RES ovarian was over 100 µM each time.

Consider `Cc1sc2nc3n(c(=O)c2c1C)N=C(c1ccc(Cl)cc1)CS3`, for which the TGI in the test with SN12C renal, in the test on SF-539 CNS, in the test with MALME-3M melanoma, with HCC-2998 colon, in the test with HS 578T breast and in the test with HCT-116 colon was over 100 µM throughout. Besides, the TGI in the test on SNB-75 CNS, in the test on UO-31 renal, with BT-549 breast, with MDA-N, in the test on HT29 colon and in the test with NCI/ADR-RES ovarian was over 100 µM each time.

With `O=C1CCCc2cc3c(cc21)CCC3C(=O)O` (stereo unspecified), the TGI with SN12C renal, in the test with SF-539 CNS, in the test with MALME-3M melanoma, with HCC-2998 colon, in the test with HS 578T breast and in the test with HCT-116 colon was over 100 µM each time. Also, the TGI in the test with SNB-75 CNS, in the test with UO-31 renal, in the test with BT-549 breast, in the test with MDA-N, with HT29 colon and in the test on NCI/ADR-RES ovarian was over 100 µM in each case.

For the compound `COC(=O)C1(O)c2ccccc2N=C2C(=O)c3ccccc3N21` (stereo unspecified), the TGI in the test on SN12C renal, with SF-539 CNS, in the test with MALME-3M melanoma, with HCC-2998 colon, with HS 578T breast and with HCT-116 colon was over 100 µM throughout. For the same compound, the TGI in the test with SNB-75 CNS was over 100 µM; in the test with UO-31 renal it was over 100 µM; in the test on BT-549 breast it was over 100 µM; in the test with MDA-N, 41.8 µM; with HT29 colon, over 100 µM; in the test on NCI/ADR-RES ovarian, over 100 µM.

In the case of `CC1(C)OCC(C2OC(N3O[C@H](CI)C[C@@H]3c3ccccc3)C3OC(C)(C)OC23)O1` (stereo partly specified), the TGI in the test on SN12C renal, in the test with SF-539 CNS, in the test with MALME-3M melanoma, in the test with HCC-2998 colon, in the test on HS 578T breast and in the test on HCT-116 colon was over 100 µM throughout. The TGI with SNB-75 CNS, in the test on UO-31 renal, in the test with BT-549 breast, in the test on MDA-N, in the test on HT29 colon and in the test with NCI/ADR-RES ovarian was over 100 µM throughout.
